The results in this text go back to US6294568A, “5-arylpyrrole derivatives” (priority 1997, dated 2001).

One experiment concerns the target T1, Human COX-2 (Homo sapiens, UniProt P35354).
T1 construct: endogenous in cells; host or cells: heparinised whole blood of a healthy human donor pretreated with aspirin, stimulated with LPS (own knowledge: COX-2 is induced in monocytes)
T1 sequence (P35354 18-604): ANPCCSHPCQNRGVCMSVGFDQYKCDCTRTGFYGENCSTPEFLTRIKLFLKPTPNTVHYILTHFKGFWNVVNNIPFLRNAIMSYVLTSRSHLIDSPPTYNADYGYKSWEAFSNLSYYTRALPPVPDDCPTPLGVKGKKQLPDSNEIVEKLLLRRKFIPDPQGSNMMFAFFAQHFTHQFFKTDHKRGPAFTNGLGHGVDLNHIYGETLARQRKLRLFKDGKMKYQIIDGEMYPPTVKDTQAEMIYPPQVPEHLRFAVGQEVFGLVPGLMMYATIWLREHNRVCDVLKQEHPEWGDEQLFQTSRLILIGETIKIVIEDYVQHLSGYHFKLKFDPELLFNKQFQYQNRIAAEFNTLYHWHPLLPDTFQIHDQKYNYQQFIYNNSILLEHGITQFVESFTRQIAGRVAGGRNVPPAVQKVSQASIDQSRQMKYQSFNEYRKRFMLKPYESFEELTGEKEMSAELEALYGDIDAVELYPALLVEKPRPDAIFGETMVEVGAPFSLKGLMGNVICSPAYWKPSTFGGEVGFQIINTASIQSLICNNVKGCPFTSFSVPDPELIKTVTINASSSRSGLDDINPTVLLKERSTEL
Nature of the experiment: Human COX-2 Inhibitory Activity Test (LPS-induced PGE2 in blood). Type of experiment: cell-based.

The test system of the next experiment is adjuvant arthritis. Nature of the experiment: Rat Adjuvant Arthritis Test. The format is in vivo, SD rats. To be noted: 3 mg/kg, oral. How it is done:
SD rats were injected subcutaneously with […] liquid paraffin/rat of H-37RA strain in the plantar area of the right hind paw. Only liquid paraffin (0.05 ml) was administered to control groups in the same manner. 21 days after the administration, rats showing the evidence of arthritis were selected and divided into groups having equal mean left and right hind paw volumes, and also having equal arthritis scores. From the date of the grouping, the test samples were administered orally to the rats once daily for 7 days (only the solvent was administered to the negative and positive control groups). The degree of the arthritis was quantitatively evaluated by measuring the volumes of the left and right hind paws by using a volume meter (manufactured by Muromachi Kikai) and by scoring the degree of arthritis by macroscopic observation as illustrated in Table 2. According to the scoring criteria in Table 2, 15 is a perfect score.
The dosage of each of the test samples was 3 mg/kg.

In another experiment the test system is CaCo-2 cells. Nature of the experiment: Cytostatic Action Test on Various Cells (XTT method). The format is cell-based. How it is done:
The cytostatic measurement of the various cancer cells were conducted according to the method of the U.S. National Cancer Institute (NCI). Adhesive cells such as CaCo-2 and HepG2 were adjusted in each of the specified culture mediums at 0.5×10^5 cells/ml concentration and pipetted into a 96 well-plate (Costar3695) in an amount of 100 μl/well. The cells were cultured under the conditions of at 37° C. in 5% CO2 atmosphere for 24 hours to allow the cell adhesion, and then the numbers of each of the cells were determined by the XTT method to be recorded as the cell number of day 0 (C0days). After that, only the medium solutions were exchanged in the control groups, and culture mediums each containing the test samples adjusted to each of the specified concentrations were exchanged In the test sample dispensing groups, then the cells were cultured under the conditions of at 37° C. in 5% CO2 atmosphere for 72 hours. The numbers of each of the cells were determined by the XTT method to be recorded as the cell number of day 3 (C3days). Further, only the medium solutions were pipetted into the control groups and the test sample administration groups were adjusted to 5×10^5 cells/ml concentrations in each of the specified culture mediums containing the test samples adjusted to each of the specified concentrations, then pipetted into a 96 well-plate (Costar3695) in an amount of 100 μl/well. The cells were cultured under the condition of at 37° C. in 5% CO2 atmosphere for 72 hours, and the number of each of the cells (T3days) were determined in the same manner.
Cell proliferation rate (%) with respect to control groups=[(T3days
-C0days)/(C3days -C0days)]×100 Formula: 5
Background: Formazan colour is commonly taken as a measure of viable cells.

The term IC50 denotes the point on the concentration scale where inhibition reaches its midpoint. Take `Cc1cc(-c2ccc(F)cc2)c(-c2ccc(S(C)(=O)=O)cc2)[nH]1` [Preparation Example 1, 4-(4-fluorophenyl)-2-methyl-5-(4-methylsulfonylphenyl)-1H-pyrrole]: the IC50 came out at 950 nM at Human COX-2 (human blood, LPS, PGE2, IC50 from Hill Plot) and 780 nM in the experiment on CaCo-2 cells (Homo sapiens, CaCo-2, 72 hours, XTT method, read-out: Cytostatic rate (IC50)). Further, the COX-1/COX-2 at Human COX-2 (ratio of IC50 COX-1 to COX-2) was found to be 683. Also, the “Right Hind Paw Volume day 21” value with adjuvant arthritis (day 21 (starting date of administration), once daily) turned out to be 3.86 mL. The “Right Hind Paw Volume day 27” value in the experiment on adjuvant arthritis (day 27, once daily for 7 days) was 2.96 mL. The “cytostatic action” value in the experiment with CaCo-2 cells (CaCo-2 cells, colon cancer cells) was “demonstrated a cytostatic action with respect to CaCo-2 cells”.
